In series [1] the test system is Vero. Briefly: Cytotoxicity against African green monkey Vero cells assessed as reduction in cell growth by coulter counter analysis. Type of series: cell-based. The conditions noted are these: chlorocebus sabaeus.
Series [2] in a line: Cytotoxicity against African green monkey Vero cells assessed as alteration in cell morphology by microscopic analysis. Type of series: cell-based. The note with it: chlorocebus sabaeus.
Series [3] concerns SARS-CoV-2. The series is described as follows: Antiviral activity against SARS-CoV-2 UC-1074 infected in African green monkey Vero cells assessed as reduction in virus plaque formation measured on day 5 post-viral infection by microscopic analysis. Type of series: functional, organism-based. The conditions noted are these: Severe acute respiratory syndrome coronavirus 2, UC-1074, Vero, 120 h.

The test system of series [4] is SARS-CoV-2. The series is described as follows: Antiviral activity against SARS-CoV-2 UC-1075 infected in African green monkey Vero cells assessed as reduction in virus plaque formation measured on day 5 post-viral infection by microscopic analysis. In kind it is functional, organism-based. The note with it: Severe acute respiratory syndrome coronavirus 2, UC-1075, Vero, 120 h.

The test system of series [5] is Human betaherpesvirus 5. The series is described as follows: Antiviral activity against Human cytomegalovirus AD169 infected in human HEL cells assessed as reduction in virus plaque formation measured on day 6 to 7 post-viral infection. Type of series: functional, cell-based. The note with it: Human betaherpesvirus 5, AD169, HEL, 144 h.
A short description of series [6]: Cytotoxicity against human HEL cells assessed as alteration in cell morphology incubated for 3 days by microscopic analysis. Type of series: cell-based. The conditions noted are these: time 3 day.
The test system of series [7] is Human alphaherpesvirus 3. Briefly: Antiviral activity against thymidine kinase positive Varicella zoster virus OKA infected in human HEL cells assessed as reduction in virus plaque formation measured on day 5 post-viral infection. The conditions noted are these: Human alphaherpesvirus 3, OKA, 120 h. Type of series: functional, organism-based.
The subject of series [8] is Human alphaherpesvirus 3. Briefly: Antiviral activity against thymidine kinase deficient Varicella zoster virus 07-1 infected in human HEL cells assessed as reduction in virus plaque formation measured on day 5 post-viral infection. The note with it: Human alphaherpesvirus 3, 07-1, HEL, 120 h. Type of series: functional, organism-based.
Series [9] has as its system Human betaherpesvirus 5. Briefly: Antiviral activity against Human cytomegalovirus Davis infected in human HEL cells assessed as reduction in virus plaque formation measured on 6 to 7 post-viral infection. Type of series: functional, cell-based. The note with it: Human betaherpesvirus 5, Davis.
For series [10], the system named is HEL. Briefly: Cytotoxicity against human HEL cells assessed as reduce in cell growth incubated for 3 days by coulter counter analysis. The conditions noted are these: 72 h, time 3 day. Type of series: cell-based.
Series [11] can be described thus: Selectivity index, ratio of CC50 for human HEL cells to EC50 for antiviral activity against thymidine kinase positive Varicella zoster virus OKA infected in human HEL cells. In kind it is toxicity, cell-based. The note with it: read-out: Ratio CC50/EC50.
Series [12] is described as follows: Selectivity index, ratio of CC50 for African green monkey Vero cells to EC50 for antiviral activity against SARS-CoV-2 UC-1075 infected in African green monkey Vero cells. In kind it is toxicity. The note with it: read-out: Ratio CC50/EC50.
Series [13] is described as follows: Selectivity index, ratio of CC50 for human HEL cells to EC50 for antiviral activity against thymidine kinase deficient Varicella zoster virus 07-1 infected in human HEL cells. Type of series: toxicity, cell-based. The note with it: read-out: Ratio CC50/EC50.
The subject of series [14] is SARS-CoV-2. Briefly: Antiviral activity against SARS-CoV-2 infected in African green monkey Vero cells assessed as reduction in virus plaque formation measured on day 5 post-viral infection by microscopic analysis relative to remdesivir. The conditions noted are these: time 5 day. In kind it is functional, Severe acute respiratory syndrome coronavirus 2.
Series [15] concerns Influenza A virus. The series is described as follows: Antiviral activity against Influenza A virus (A/Puerto Rico/8/34(H1N1)) expressing NS116-GFP infected in human RPE cells assessed as inhibition of viral replication measured after 24 hrs by luminescence based assay. In kind it is functional, organism-based. The note with it: A/Puerto Rico/8/1934(H1N1), HRPE.
Series [16] concerns Hepatitis C virus. Briefly: Antiviral activity against Hepatitis C virus assessed as inhibition of viral replication incubated for 3 days by Renilla luciferase based assay. In kind it is functional, organism-based, Hepacivirus hominis. The note with it: 72 h.
Series [17] has as its system Zika virus. Briefly: Antiviral activity against Zika virus infected in human RPE cells assessed as inhibition of virus-induced cytopathic effect measured at 48 hrs post-viral infection by CellTiter Glo assay. Type of series: functional, organism-based. The note with it: HRPE.
For series [18], the system named is rhinovirus A1B. Briefly: Antiviral activity against Human rhinovirus 1B infected in human HeLa cells assessed as inhibition of virus-induced cytopathicity measured after 2 days by SRB method. Type of series: functional, organism-based. The note with it: Rhinovirus A, 48 h. A general note: Cytopathic effects are the visible damage that an infection or toxin causes in cultured cells.

In series [19] the test system is Enterovirus C. The series is described as follows: Antiviral activity against Polio virus Mahoney infected in human HeLa cells assessed as inhibition of viral replication incubated for 2 days by luminescence analysis. In kind it is functional, organism-based. The note with it: 48 h.
The subject of series [20] is SARS-CoV-2. Briefly: Antiviral activity against SARS-CoV-2 infected in African green monkey Vero E6 cells assessed as reduction in viral RNA copy number incubated for 24 hrs by real time RT-PCR analysis. In kind it is functional, organism-based. The conditions noted are these: Severe acute respiratory syndrome coronavirus 2, Vero C1008, 24 h. On the technique in general: Real-time PCR tracks product formation cycle by cycle.

The subject of series [21] is Human immunodeficiency virus 1. Briefly: Antiviral activity against HIV-1 infected in HEK293T cells assessed as inhibition of viral replication treated with compound 2 hrs prior to viral infection and measured after 24 hrs by flow cytometry. In kind it is functional, organism-based. The conditions noted are these: Human immunodeficiency virus 1, HEK-293T. (Flow cytometry measures light scatter and fluorescence of single cells or particles in a stream.)

For series [22], the system named is Middle East respiratory syndrome-related coronavirus. Briefly: Antiviral activity against MERS-CoV Hu/Jordan-N3/2012 infected in African green monkey Vero E6 cells assessed as inhibition of viral replication treated for 1 hr prior to viral infection and measured after 48 hrs by ELISA. Type of series: functional, organism-based. The note with it: Hu/Jordan-N3/2012, Vero C1008.

The term CC50 denotes the concentration that lowers cell viability or growth by half. What is called EC50 is the concentration at which the effect is half-maximal. What is called IC50 is the concentration that gives 50% inhibition.

`CCC(CC)COC(=O)[C@H](C)N[P@](=O)(OC[C@H]1O[C@@](C#N)(c2ccc3c(N)ncnn23)[C@H](O)[C@@H]1O)Oc1ccccc1`: the CC50 in series [1] was above 40 µM. In series [2], the MCC is above 40 µM. Further, the figures for the EC50 in series [3] and in series [4] were 5.8 µM and 1.52 µM, respectively.

In the case of `CO[C@]1(CO)O[C@@H](n2ccc(=O)[nH]c2=O)C(F)(F)[C@@H]1O`, the EC50 in series [5], in series [7], in series [8] and in series [9] was above 100 µM throughout. For the same compound, in series [6], the MCC at 72 h is above 100 µM.

On to `Nc1ccn([C@@H]2O[C@](F)(CO)[C@@H](O)C2(F)F)c(=O)n1`, for which the CC50 was 0.11 µM in series [10] and 0.26 µM in [1]. Further, the selectivity ratio in series [11] is 2; in series [12] it was 2; in series [13], below 1. Besides, the EC50 in [5] amounted to 0.815 µM; in series [7], 0.042 µM; in series [8], 0.166 µM; in series [9] it was 0.93 µM; in series [3] it was 0.36 µM; in [4] it was 0.096 µM. In [6], the MCC at 72 h was 20 µM. Also, the MCC in series [2] worked out at 0.16 µM. Moreover, the Ratio in series [14] was determined as 20.

Regarding `C[C@H](NP(=O)(OC[C@@]1(F)O[C@@H](n2ccc(N)nc2=O)C(F)(F)[C@@H]1O)Oc1ccccc1)C(=O)OCc1ccccc1` (stereo not given in full), the CC50 was 84.4 µM in series [10] and 1.44 µM in series [1]. Besides, the selectivity ratio in series [11] was 36; in [12] it was below 2; in series [13], 29. Moreover, the half-maximal effective concentration (EC50) in series [5] was 15.5 µM; in [7] it was 2.32 µM; in series [8], 2.84 µM; in series [9] it was 4 µM; in [3], at least 2.4 µM; in [4], 0.73 µM. For the same compound, the MCC at 72 h in [6] is above 100 µM. For the same compound, the MCC in [2] stood at 4 µM. The Ratio in series [14] is 10.

With `O=c1ccn([C@@H]2O[C@](F)(CO)[C@@H](O)C2(F)F)c(=O)[nH]1`, the EC50 in series [5], in [7], in series [8] and in series [9] was above 100 µM in each case. Further, the MCC at 72 h in [6] is above 100 µM.

Regarding `CO[C@]1(COP(=O)(N[C@@H](C)C(=O)OCc2ccccc2)Oc2ccccc2)O[C@@H](n2ccc(N)nc2=O)C(F)(F)[C@@H]1O` (stereo not given in full), the EC50 was above 100 µM in series [5]; above 100 µM in [7]; above 100 µM in series [8]; above 100 µM in series [9]; above 100 µM in series [3]; at least 55.1 µM in series [4]. Further, the MCC at 72 h in series [6] is above 100 µM. The CC50 in series [1] was at least 93.6 µM. Also, in series [2], the MCC was at least 100 µM.

`CO[C@]1(CO)O[C@@H](n2ccc(N)nc2=O)C(F)(F)[C@@H]1O`: the EC50 in series [5] was above 100 µM; in series [7] it was above 100 µM; in series [8] it was above 100 µM; in series [9] it was above 100 µM; in [4], at least 86.2 µM. For the same compound, the MCC at 72 h in series [6] is above 100 µM. Besides, the CC50 in [1] is above 100 µM. Further, the MCC in series [2] is above 100 µM.

Regarding `Nc1nc2c(ncn2COCCO)c(=O)[nH]1` [ACYCLOVIR], in series [10], the CC50 was determined as 424 µM. Besides, the MCC at 72 h in [6] was above 440 µM.

Regarding `O=c1[nH]c(=O)n([C@H]2C[C@H](O)[C@@H](CO)O2)cc1/C=C/Br` [BRIVUDINE], in [10], the CC50 is above 300 µM. Besides, the selectivity ratio was above 8330 in [11] and above 49 in series [13]. Besides, the MCC at 72 h in [6] was above 300 µM. Moreover, the EC50 in series [7] stood at 0.036 µM; in series [8], 6.04 µM.

For `Nc1ccn(C[C@@H](CO)OCP(=O)(O)O)c(=O)n1` [CIDOFOVIR], the values for the EC50 in series [5] and in series [9] were 0.65 µM and 0.34 µM, respectively. The MCC at 72 h in series [6] came out at 300 µM.

Consider `C[C@H](NP(=O)(OC[C@H]1O[C@@H](n2ccc(N)nc2=O)C(F)(F)[C@@H]1O)Oc1ccccc1)C(=O)OCc1ccccc1` (stereo not given in full) [FOSGEMCITABINE PALABENAMIDE], for which the CC50 came out at 0.34 µM in [10] and 0.02 µM in series [1]. Further, the selectivity ratio in [11] was 4; in series [13] it was 3. Moreover, the EC50 in [5] is 0.066 µM; in series [7] it was 0.074 µM; in series [8] it was 0.089 µM; in series [9] it was 0.032 µM; in [3], above 0.032 µM; in series [4], above 0.0128 µM. For the same compound, in series [6], the MCC at 72 h is above 100 µM. Besides, in series [2], the MCC was found to be 0.048 µM.

`Nc1nc(O)c2ncn(COC(CO)CO)c2n1` [GANCICLOVIR]: the MCC at 72 h in series [6] came to 350 µM.

As to `Nc1ccn([C@@H]2O[C@H](CO)[C@@H](O)C2(F)F)c(=O)n1` [GEMCITABINE], the CC50 is 0.0036 µM in series [10] and 0.0043 µM in series [1]. The EC50 stood at 0.068 µM in [15]; 0.012 µM in series [16]; 0.074 µM in series [5]; 0.01 µM in series [17]; 0.81 µM in series [18]; 1.24 µM in series [20]. Further, the EC50 in [7] was 0.028 µM; in series [21], 0.0163 µM; in series [22] it was 1.22 µM; in series [8], 0.054 µM; in series [9], 0.053 µM; in series [3] it was above 0.0032 µM. Besides, in [4], the EC50 was above 0.0016 µM. Further, the IC50 in series [19] turned out to be 0.3 µM. In addition, in series [6], the MCC at 72 h was 20 µM. Moreover, in series [2], the MCC is 0.008 µM.

Regarding `CCN(CCO)CCCC(C)Nc1ccnc2cc(Cl)ccc12` (stereo not given) [HYDROXYCHLOROQUINE], the cytotoxic concentration (CC50) in [1] is 36.9 µM. The MCC in series [2] was 100 µM. The EC50 is 8.1 µM in series [3] and 1.74 µM in series [4].

Values taken from ChEMBL document CHEMBL4673379 (ACS Med Chem Lett, 2021).
